The values that follow come from US7074789B2, “Kinase inhibitors” (Amgen Inc., priority 1999, dated 2006).

Molecules are shown by their SMILES. Like-named read-outs stand apart in the source and are kept apart here.

Format in all cases: biochemical
One test concerns the target T1, AKT (Homo sapiens, UniProt Q9Y243).
T1 construct: Kinases are expressed as either kinase domains or full length constructs; made in house
Put plainly: Kinase inhibition assay (33P transfer), AKT. The conditions noted are these: Table 2, kinase inhibition class; read-out: AKT3-1. The essentials:
(§1)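 Kinase domains or full-length kinases, GST- or His-tagged and expressed in E. coli or baculovirus/High Five cells, transferred 33PO4 from ATP onto plate-bound poly(Glu,Tyr) 4:1 or poly(Arg,Ser) 3:1. After incubation, plates were washed with 0.5% phosphoric acid and counted by liquid scintillation.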

The target in the next test is T2, c-Met (Homo sapiens, UniProt P08581).
T2 construct: Kinases are expressed as either kinase domains or full length constructs; made in house
T2 sequence (P08581 25-1390): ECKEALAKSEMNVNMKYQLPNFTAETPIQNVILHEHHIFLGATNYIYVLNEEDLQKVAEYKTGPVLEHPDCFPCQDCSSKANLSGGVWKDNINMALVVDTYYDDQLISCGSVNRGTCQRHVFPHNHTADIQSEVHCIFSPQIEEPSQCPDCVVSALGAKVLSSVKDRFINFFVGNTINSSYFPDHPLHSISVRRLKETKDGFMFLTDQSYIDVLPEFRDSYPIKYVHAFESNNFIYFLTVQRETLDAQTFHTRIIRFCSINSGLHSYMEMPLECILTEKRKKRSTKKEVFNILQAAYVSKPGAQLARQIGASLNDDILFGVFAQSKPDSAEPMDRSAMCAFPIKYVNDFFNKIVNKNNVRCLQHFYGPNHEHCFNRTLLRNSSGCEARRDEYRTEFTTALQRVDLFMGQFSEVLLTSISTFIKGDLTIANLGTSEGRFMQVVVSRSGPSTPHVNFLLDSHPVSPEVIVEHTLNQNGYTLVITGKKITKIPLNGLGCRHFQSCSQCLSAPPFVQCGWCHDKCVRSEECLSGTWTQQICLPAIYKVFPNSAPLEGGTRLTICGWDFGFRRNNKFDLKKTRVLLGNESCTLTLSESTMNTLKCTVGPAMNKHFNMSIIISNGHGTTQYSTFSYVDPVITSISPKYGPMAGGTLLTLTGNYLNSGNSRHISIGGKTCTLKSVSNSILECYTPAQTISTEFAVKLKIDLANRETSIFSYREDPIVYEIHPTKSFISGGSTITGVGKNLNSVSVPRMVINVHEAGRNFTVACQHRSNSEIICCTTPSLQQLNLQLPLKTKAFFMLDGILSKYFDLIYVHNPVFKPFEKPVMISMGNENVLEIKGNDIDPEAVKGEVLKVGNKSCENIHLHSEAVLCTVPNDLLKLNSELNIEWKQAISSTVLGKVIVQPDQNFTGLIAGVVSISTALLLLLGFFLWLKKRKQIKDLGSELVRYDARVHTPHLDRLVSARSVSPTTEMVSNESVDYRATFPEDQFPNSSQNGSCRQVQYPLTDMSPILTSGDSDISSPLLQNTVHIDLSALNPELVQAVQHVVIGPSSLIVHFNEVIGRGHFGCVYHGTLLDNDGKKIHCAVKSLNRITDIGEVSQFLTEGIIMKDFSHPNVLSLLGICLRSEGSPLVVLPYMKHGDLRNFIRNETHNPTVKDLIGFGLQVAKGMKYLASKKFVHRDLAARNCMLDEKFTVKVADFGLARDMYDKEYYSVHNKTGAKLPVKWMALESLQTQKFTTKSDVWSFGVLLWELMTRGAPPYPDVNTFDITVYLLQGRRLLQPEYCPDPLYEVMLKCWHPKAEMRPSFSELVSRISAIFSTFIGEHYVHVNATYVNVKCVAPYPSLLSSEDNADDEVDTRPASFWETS
The experiment in a line: Kinase inhibition assay (33P transfer), c-Met. The conditions noted are these: Table 2, kinase inhibition class; read-out: Met-1. Put shortly: (§2)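 Activity read as 33P incorporation from ATP into poly(Glu,Tyr) 4:1 or poly(Arg,Ser) 3:1 substrate bound to microtiter plates, measured by scintillation after acid washing. Enzymes were affinity-purified GST or polyHis fusions (kinase domain or full length) from E. coli or baculovirus; IC50 = 50% reduction in labelled phosphate.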

A further test addresses T3, Lck (Homo sapiens, UniProt P06239).
T3 construct: Kinases are expressed as either kinase domains or full length constructs; made in house
Put plainly: Kinase inhibition assay (33P transfer), Lck. Conditions: read-out: Lck-1. Put shortly:
as §1

For the next test, the target named is T4, Itk (Homo sapiens, UniProt Q08881).
T4 construct: Kinases are expressed as either kinase domains or full length constructs; made in house
T4 sequence (Q08881 1-620): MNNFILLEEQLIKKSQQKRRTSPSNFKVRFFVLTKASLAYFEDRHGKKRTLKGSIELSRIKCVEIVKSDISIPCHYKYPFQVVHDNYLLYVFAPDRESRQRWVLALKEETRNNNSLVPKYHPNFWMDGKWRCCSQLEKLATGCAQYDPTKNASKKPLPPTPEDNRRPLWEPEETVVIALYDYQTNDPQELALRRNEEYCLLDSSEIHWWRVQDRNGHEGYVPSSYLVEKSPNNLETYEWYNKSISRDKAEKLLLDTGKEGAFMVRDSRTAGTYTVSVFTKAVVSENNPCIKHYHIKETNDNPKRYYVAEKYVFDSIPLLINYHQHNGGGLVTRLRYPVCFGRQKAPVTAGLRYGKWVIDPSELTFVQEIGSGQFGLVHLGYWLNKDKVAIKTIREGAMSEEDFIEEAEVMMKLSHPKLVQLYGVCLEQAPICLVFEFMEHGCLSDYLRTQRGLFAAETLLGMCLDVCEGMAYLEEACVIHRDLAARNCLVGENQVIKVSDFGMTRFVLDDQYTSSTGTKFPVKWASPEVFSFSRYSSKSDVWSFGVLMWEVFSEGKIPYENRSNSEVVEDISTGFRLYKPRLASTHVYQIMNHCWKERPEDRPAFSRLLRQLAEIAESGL
The experiment in a line: Kinase inhibition assay (33P transfer), Itk. The conditions noted are these: read-out: Itk-1. Put shortly: as §2

Another test deals with T5, Kdr (Homo sapiens, UniProt P35968).
T5 construct: Kinases are expressed as either kinase domains or full length constructs; made in house
T5 sequence (P35968 20-1356, species assumed): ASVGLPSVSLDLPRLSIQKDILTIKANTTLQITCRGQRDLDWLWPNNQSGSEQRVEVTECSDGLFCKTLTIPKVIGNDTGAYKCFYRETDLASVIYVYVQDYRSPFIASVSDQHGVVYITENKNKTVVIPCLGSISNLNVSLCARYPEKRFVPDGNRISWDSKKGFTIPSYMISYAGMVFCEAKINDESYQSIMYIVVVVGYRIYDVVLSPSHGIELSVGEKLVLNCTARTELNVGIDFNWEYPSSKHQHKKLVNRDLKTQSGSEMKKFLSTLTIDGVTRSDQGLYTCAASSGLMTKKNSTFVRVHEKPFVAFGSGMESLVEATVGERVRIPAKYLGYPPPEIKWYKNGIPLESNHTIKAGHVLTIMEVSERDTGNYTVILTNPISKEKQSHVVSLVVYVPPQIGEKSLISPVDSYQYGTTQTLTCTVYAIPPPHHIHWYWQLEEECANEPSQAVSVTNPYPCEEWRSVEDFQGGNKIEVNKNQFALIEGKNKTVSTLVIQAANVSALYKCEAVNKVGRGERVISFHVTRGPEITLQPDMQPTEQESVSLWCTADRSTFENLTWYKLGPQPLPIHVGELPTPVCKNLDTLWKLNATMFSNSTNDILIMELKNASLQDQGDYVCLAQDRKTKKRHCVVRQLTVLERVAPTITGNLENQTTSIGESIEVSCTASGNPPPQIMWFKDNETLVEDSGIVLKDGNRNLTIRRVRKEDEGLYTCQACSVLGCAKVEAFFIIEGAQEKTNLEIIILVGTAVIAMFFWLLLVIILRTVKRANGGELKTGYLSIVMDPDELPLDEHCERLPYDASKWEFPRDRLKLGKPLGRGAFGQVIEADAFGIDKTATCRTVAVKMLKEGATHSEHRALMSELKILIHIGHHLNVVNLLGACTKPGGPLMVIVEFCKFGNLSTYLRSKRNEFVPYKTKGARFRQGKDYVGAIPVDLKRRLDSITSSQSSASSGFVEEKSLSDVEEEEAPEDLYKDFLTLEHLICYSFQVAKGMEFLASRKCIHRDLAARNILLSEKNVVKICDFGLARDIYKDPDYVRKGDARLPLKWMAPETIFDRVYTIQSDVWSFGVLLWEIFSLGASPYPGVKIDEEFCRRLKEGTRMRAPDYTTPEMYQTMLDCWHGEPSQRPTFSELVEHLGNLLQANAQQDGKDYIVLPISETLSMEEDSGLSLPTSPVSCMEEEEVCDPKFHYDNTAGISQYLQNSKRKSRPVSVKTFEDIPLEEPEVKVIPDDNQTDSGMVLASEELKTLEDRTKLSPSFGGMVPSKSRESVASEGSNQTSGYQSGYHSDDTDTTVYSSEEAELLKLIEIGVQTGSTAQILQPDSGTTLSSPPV
Put plainly: Kinase inhibition assay (33P transfer), Kdr. Conditions: read-out: KDR-1. Put shortly:
as §1

Another test concerns the target T6, Zap-70 (Homo sapiens, UniProt P43403).
T6 construct: Kinases are expressed as either kinase domains or full length constructs; made in house
T6 sequence (P43403 1-619): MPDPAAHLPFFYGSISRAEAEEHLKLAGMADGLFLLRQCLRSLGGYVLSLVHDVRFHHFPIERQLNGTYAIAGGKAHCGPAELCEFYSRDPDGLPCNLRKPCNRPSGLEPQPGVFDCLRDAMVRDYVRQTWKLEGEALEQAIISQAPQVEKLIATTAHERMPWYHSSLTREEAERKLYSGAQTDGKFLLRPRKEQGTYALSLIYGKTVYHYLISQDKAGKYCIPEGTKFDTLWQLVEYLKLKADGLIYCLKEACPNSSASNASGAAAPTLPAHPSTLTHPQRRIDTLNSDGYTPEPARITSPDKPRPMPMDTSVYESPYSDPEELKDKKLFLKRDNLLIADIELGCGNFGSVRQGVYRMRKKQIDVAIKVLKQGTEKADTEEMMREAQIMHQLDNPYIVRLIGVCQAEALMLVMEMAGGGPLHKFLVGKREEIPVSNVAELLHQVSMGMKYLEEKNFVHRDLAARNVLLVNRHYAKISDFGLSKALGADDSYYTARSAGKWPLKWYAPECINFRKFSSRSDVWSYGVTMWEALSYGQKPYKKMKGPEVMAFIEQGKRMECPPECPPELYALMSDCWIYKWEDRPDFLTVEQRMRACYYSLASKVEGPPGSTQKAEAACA
Put plainly: Kinase inhibition assay (33P transfer), Zap-70. The conditions noted are these: read-out: Zap-1. The essentials:
as §1

The target of another test is T7, EGFR (Homo sapiens, UniProt P00533).
T7 construct: Kinases are expressed as either kinase domains or full length constructs; made in house
T7 sequence (P00533 25-1210, species assumed): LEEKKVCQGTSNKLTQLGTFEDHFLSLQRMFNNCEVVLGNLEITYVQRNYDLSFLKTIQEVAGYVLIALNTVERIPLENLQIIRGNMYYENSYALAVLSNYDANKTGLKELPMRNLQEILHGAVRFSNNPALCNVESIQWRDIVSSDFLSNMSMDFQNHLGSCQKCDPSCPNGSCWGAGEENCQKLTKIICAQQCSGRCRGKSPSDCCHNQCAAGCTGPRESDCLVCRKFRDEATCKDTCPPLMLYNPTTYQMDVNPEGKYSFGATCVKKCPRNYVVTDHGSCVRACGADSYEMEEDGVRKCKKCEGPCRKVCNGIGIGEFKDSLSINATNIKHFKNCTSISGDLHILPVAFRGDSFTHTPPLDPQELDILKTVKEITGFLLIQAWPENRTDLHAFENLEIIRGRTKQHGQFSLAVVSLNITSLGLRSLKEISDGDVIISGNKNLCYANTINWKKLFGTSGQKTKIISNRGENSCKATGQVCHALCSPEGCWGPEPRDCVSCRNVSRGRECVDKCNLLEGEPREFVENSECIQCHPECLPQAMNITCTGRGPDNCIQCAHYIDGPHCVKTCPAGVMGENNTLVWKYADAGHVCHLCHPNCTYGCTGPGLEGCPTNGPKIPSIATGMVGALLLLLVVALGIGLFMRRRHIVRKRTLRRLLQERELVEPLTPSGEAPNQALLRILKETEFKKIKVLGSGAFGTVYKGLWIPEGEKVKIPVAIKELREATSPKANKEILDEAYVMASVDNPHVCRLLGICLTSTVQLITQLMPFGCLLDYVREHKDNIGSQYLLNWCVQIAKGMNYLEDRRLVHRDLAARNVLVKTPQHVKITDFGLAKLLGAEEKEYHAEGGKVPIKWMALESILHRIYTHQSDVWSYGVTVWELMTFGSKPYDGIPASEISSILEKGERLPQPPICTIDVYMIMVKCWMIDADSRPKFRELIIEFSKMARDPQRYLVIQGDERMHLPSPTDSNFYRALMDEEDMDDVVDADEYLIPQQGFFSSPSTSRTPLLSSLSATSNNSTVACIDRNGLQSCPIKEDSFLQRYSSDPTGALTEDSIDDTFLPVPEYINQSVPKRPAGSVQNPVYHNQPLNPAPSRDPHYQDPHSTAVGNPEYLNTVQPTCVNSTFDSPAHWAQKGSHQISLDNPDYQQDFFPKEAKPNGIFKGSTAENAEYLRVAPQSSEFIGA
Put plainly: Kinase inhibition assay (33P transfer), EGFR. The conditions noted are these: Table 2, kinase inhibition class; read-out: EGFR-1. Put shortly: as §2

T1 sequence (Q9Y243 whole entry, the tested form may be a part): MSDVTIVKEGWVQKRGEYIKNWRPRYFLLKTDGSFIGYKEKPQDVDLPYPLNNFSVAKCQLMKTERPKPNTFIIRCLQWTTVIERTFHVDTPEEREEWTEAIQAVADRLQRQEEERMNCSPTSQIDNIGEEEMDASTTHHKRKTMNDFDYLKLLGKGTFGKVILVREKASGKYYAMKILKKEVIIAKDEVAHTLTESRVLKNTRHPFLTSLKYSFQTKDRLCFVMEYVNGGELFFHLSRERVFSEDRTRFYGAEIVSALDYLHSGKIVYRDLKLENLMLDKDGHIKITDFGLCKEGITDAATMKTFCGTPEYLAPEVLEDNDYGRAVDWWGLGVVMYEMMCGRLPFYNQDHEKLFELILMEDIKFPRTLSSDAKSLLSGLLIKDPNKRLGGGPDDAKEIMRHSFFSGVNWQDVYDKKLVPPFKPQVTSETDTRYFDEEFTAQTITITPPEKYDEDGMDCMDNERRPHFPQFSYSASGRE
T3 sequence (P06239 whole entry, species assumed, the tested form may be a part): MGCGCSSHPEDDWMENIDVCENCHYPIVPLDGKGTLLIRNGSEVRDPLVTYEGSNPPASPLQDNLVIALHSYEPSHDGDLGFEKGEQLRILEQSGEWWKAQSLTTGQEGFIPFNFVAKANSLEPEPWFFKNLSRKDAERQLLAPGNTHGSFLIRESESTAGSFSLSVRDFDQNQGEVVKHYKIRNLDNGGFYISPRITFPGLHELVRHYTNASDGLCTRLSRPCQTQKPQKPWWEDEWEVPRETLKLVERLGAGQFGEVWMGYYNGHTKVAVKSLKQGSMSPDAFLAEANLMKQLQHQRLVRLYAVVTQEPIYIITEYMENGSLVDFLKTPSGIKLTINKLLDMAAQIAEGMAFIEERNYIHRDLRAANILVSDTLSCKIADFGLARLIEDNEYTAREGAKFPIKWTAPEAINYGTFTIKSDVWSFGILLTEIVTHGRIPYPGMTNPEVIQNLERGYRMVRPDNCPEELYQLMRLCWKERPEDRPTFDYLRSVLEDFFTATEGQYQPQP

As for `COc1ccc(-c2cn[nH]c2Nc2ncnc(Nc3cc(OC)c(OC)c(OC)c3)n2)cc1OC` [Compound 470], the IC50 on AKT was more than 9.38 µM; at c-Met, more than 9.38 µM; at Lck, 5.01 to 7.3 µM; on Itk it was 0.834 to 5.01 µM; at Kdr, more than 9.38 µM; on Zap-70 it was more than 9.38 µM. Also, the IC50 on EGFR was 7.3 to 9.38 µM.
For the compound `O=c1[nH]c2ccccc2n1-c1ncnc(Nc2cccc(S(=O)(=O)CCO)c2)n1` [Compound 681], the IC50 on AKT was more than 10.9 µM; on c-Met, more than 10.9 µM; on Lck, more than 10.9 µM; at Itk it was more than 10.9 µM; on Kdr, 0.97 to 5.82 µM; at Zap-70, more than 10.9 µM. For the same compound, the IC50 at EGFR is more than 10.9 µM.
On to `CC[C@H]1CN(c2ccc(-c3ncnc(Nc4cc(OC)c(OC)c(OC)c4)n3)cn2)CCN1` [Compound 446], for which the IC50 at AKT, at c-Met, on Lck (Table 3), on Itk (Table 3), at Kdr (Table 3) and on Zap-70 (Table 3) was more than 9.97 µM in each case. The IC50 at EGFR is more than 9.97 µM.
Take `NC(=O)[C@H](CO)Nc1ncnc(-n2c(=O)[nH]c3ccccc32)n1` [Compound 450]: the IC50 at AKT, at c-Met, on Lck (Table 3), on Itk (Table 3), at Kdr (Table 3) and on Zap-70 (Table 3) was more than 14.3 µM in each case. Moreover, the IC50 at EGFR is more than 14.3 µM.
Turning to `COc1cc(Nc2ncnc(-n3c(N)nc4ccccc43)n2)cc(OC)c1` [Compound 477], the IC50 on AKT is more than 12.4 µM; on c-Met, more than 12.4 µM; at Lck it was 1.1 to 6.6 µM; at Itk, 1.1 to 6.6 µM; on Kdr, less than 1.1 µM; on Zap-70, more than 12.4 µM. In addition, on EGFR, the IC50 was more than 12.4 µM.
Turning to `O=c1[nH]c2ccccc2n1-c1ncnc(Nc2ccc(Cl)cc2)n1` [Compound 458], the IC50 at AKT was more than 13.3 µM; on c-Met, 7.08 to 10.3 µM; on Lck (Table 3), more than 13.3 µM; on Itk (Table 3), more than 13.3 µM; on Kdr (Table 3), 1.18 to 7.08 µM; on Zap-70 (Table 3), more than 13.3 µM. Moreover, on EGFR, the IC50 is more than 13.3 µM.
For `CC(=O)NS(=O)(=O)c1ccc(Nc2ncnc(-n3c(=O)[nH]c4ccccc43)n2)cc1` [Compound 452], the IC50 was more than 10.6 µM on AKT; more than 10.6 µM on c-Met; more than 10.6 µM at Lck (Table 3); more than 10.6 µM at Itk (Table 3); 0.94 to 5.64 µM on Kdr (Table 3); more than 10.6 µM at Zap-70 (Table 3). Also, at EGFR, the IC50 was more than 10.6 µM.
As for `COc1cc(Nc2ncnc(-c3ccc(N(C)C)nc3)n2)cc(OC)c1OC` [Compound 449], the IC50 on AKT, at c-Met, at Lck (Table 3), at Itk (Table 3), at Kdr (Table 3) and on Zap-70 (Table 3) was more than 11.8 µM in each case. In addition, at EGFR, the IC50 was more than 11.8 µM.
With `COc1cc(Nc2ncnc(-c3ccc(NCc4ccccc4)nc3)n2)cc(OC)c1OC` [Compound 471], the IC50 at AKT, at c-Met, at Lck, at Itk, on Kdr and at Zap-70 was more than 10.1 µM in each case. Besides, the IC50 on EGFR is more than 10.1 µM.
